The NIST ThermoML archive (doi:10.1016/j.fluid.2007.05.030)
Where “and” joins values, the source holds several entries; their conditions need not be identical. Equal values may be shown once.

Columns and labels:
[1] = Liquid; for mass density: 101.33 kPa
[2] = excess molar enthalpy (molar enthalpy of mixing); xn = mol fraction of the nth substance listed; details: 101 kPa, Liquid

O [water]
Details	vapor or sublimation pressure
[1], 363.15 K	70.09 kPa and 69.93 kPa

OCCO [1,2-ethanediol]
Details	vapor or sublimation pressure
[1], 363.15 K	1.202 kPa and 1.28 kPa and 1.38 kPa

CC(=O)OCCOC(C)=O [ethylene diacetate] + CC(=O)O
[2], 323.15 K, Flow calorimetry
Details	excess molar enthalpy [kcal/mol]
x2 = 0.1086	0.0418
x2 = 0.2045	0.0657
x2 = 0.2899	0.0791
x2 = 0.3665	0.0863
x2 = 0.4354	0.0894
x2 = 0.4979	0.0894
x2 = 0.5547	0.0877
x2 = 0.6067	0.0834
x2 = 0.6544	0.0784
x2 = 0.6982	0.0736
x2 = 0.7388	0.0669
x2 = 0.7763	0.06
x2 = 0.8112	0.0526
x2 = 0.8437	0.0447
x2 = 0.8741	0.0375
x2 = 0.9025	0.0292
x2 = 0.9291	0.0218
x2 = 0.9542	0.014
x2 = 0.9778	0.00669

CC(=O)OCCOC(C)=O [ethylene diacetate]
Details	vapor or sublimation pressure
[1], 363.15 K	2.744 kPa [middle of 4 runs]

CC(=O)O [acetic acid]
Details	vapor or sublimation pressure
[1], 363.15 K	39.68 kPa and 39.67 kPa and 39.66 kPa

CC(=O)OCCO [2-hydroxyethyl acetate] + O
[2], 323.15 K, Flow calorimetry
Details	excess molar enthalpy [kcal/mol]
x2 = 0.1179	-0.192
x2 = 0.2578	-0.176
x2 = 0.3978	-0.117
x2 = 0.546	-0.0727
x2 = 0.6907	-0.0373
x2 = 0.825	-0.0169
x2 = 0.9399	-0.00478

CC(=O)OCCO [2-hydroxyethyl acetate]
[1]
Details	mass density [kg/m3]	vapor or sublimation pressure
283.16 K	1118.6	–
288.14 K	1113.8	–
293.14 K	1108.9	–
298.14 K	1104.1	–
303.14 K	1099.2	–
308.14 K	1094.4	–
313.14 K	1089.5	–
318.14 K	1084.6	–
323.14 K	1079.7	–
328.14 K	1074.8	–
333.14 K	1069.9	–
338.14 K	1064.9	–
343.14 K	1059.9	–
363.15 K	–	2.228 kPa [middle of 4 runs]
374.42 K	–	3.79 kPa
403.66 K	–	13.81 kPa
417.65 K	–	23.64 kPa
427.41 K	–	33.46 kPa
434.9 K	–	43.3 kPa
440.57 K	–	53.13 kPa
444.25 K	–	62.95 kPa
448.78 K	–	72.79 kPa

CC(=O)OCCO [2-hydroxyethyl acetate] + CC(=O)OCCOC(C)=O
[2], 323.15 K, Flow calorimetry
Details	excess molar enthalpy [kcal/mol]
x1 = 0.103	0.0688
x1 = 0.231	0.13
x1 = 0.3777	0.163
x1 = 0.5367	0.167
x1 = 0.7024	0.142
x1 = 0.8299	0.098
x1 = 0.9272	0.0495

CC(=O)OCCO [2-hydroxyethyl acetate] + OCCO
[2], 323.15 K, Flow calorimetry
Details	excess molar enthalpy [kcal/mol]
x1 = 0.0784	0.0435
x1 = 0.1656	0.0808
x1 = 0.2632	0.111
x1 = 0.3732	0.132
x1 = 0.4718	0.139
x1 = 0.5815	0.136
x1 = 0.7043	0.117
x1 = 0.8065	0.0894
x1 = 0.9188	0.043

CC(=O)O [acetic acid] + OCCO
excess molar enthalpy [kcal/mol], [2]
Details	298.15 K	323.15 K
x1 = 0.0489	0.00158	–
x1 = 0.049	–	0.00485
x1 = 0.098	0.000992	0.007
x1 = 0.1472	-0.000488	0.00631
x1 = 0.1964	-0.0027	–
x1 = 0.1965	–	0.00519
x1 = 0.2458	-0.00595	–
x1 = 0.2459	–	0.00304
x1 = 0.2953	-0.00837	–
x1 = 0.2954	–	0.00172
x1 = 0.3449	-0.011	–
x1 = 0.345	–	-0.000206
x1 = 0.3946	-0.0134	–
x1 = 0.3947	–	-0.00151
x1 = 0.4444	-0.0147	–
x1 = 0.4445	–	-0.00229
x1 = 0.4944	-0.0151	–
x1 = 0.4945	–	-0.00167
x1 = 0.5444	-0.0136	–
x1 = 0.5445	–	-0.000263
x1 = 0.5946	-0.0107	–
x1 = 0.5947	–	0.00282
x1 = 0.6449	-0.00621	–
x1 = 0.645	–	0.00734
x1 = 0.6953	0.00032	0.0126
x1 = 0.7458	0.00667	0.0189
x1 = 0.7964	0.0138	0.0244
x1 = 0.8471	0.0196	–
x1 = 0.8472	–	0.0289
x1 = 0.898	0.0224	0.0296
x1 = 0.9489	0.0184	0.0225

CC(=O)OCCOC(C)=O [ethylene diacetate] + O
[2], 323.15 K, Flow calorimetry
Details	excess molar enthalpy [kcal/mol]
x2 = 0.0844	0.15
x2 = 0.1574	0.24
x2 = 0.2211	0.299
x2 = 0.2771	0.331
x2 = 0.3713	0.36
x2 = 0.4473	0.361
x2 = 0.5624	0.304
x2 = 0.6455	0.245
x2 = 0.7342	0.182
x2 = 0.8138	0.125
x2 = 0.8793	0.0798
x2 = 0.9161	0.0535
x2 = 0.9444	0.0344
x2 = 0.9668	0.0189
x2 = 0.9808	0.00808

CC(=O)OCCOC(C)=O [ethylene diacetate] + OCCO
[2], 323.15 K, Flow calorimetry
Details	excess molar enthalpy [kcal/mol]
x1 = 0.0219	0.0483
x1 = 0.0451	0.0966
x1 = 0.0698	0.142
x1 = 0.096	0.19
x1 = 0.1241	0.232
x1 = 0.1541	0.268
x1 = 0.1862	0.302
x1 = 0.2208	0.332
x1 = 0.258	0.362
x1 = 0.2982	0.389
x1 = 0.3419	0.412
x1 = 0.3893	0.434
x1 = 0.4411	0.456
x1 = 0.4979	0.466
x1 = 0.5604	0.464
x1 = 0.6296	0.452
x1 = 0.7066	0.418
x1 = 0.7927	0.345
x1 = 0.8898	0.216

CC(=O)OCCO [2-hydroxyethyl acetate] + CC(=O)O
[2], 323.15 K, Flow calorimetry
Details	excess molar enthalpy [kcal/mol]
x2 = 0.0798	-0.0241
x2 = 0.1906	-0.0502
x2 = 0.2919	-0.0636
x2 = 0.414	-0.0664
x2 = 0.5236	-0.0576
x2 = 0.6224	-0.0437
x2 = 0.7332	-0.0223
x2 = 0.8318	-0.00323
x2 = 0.9203	0.00684
